# Test results from PMC8202924, “Emodepside targets SLO-1 channels of Onchocerca ochengi and induces broad anthelmintic effects in a bovine model of onchocerciasis” (PLoS Pathogens, 2021).
# Several values for one entry are separate records, joined by “and”; a condition that tells them apart may be missing. Identical values can stand only once. Like-named read-outs stand apart in the source and are kept apart here.
# Assays:
# [1] = Dose identification (tolerability, blood glucose) after single IV infusion in Holstein cattle; type: in vivo, Holstein cattle (Bos taurus)
# Source text: To ensure that doses of emodepside would be well tolerated in cattle in Cameroon, and that any adverse effects would be manageable in the field, dose identification was first performed in two female Holstein cattle (Bos taurus) 13–15 months old in Germany. Animals were from Rinder Union West, 48147 Münster, Germany, and were kept in a pen in an outdoor climate housing system of approximately 8 × 10 m in size in Hanscheider Hof, 51399 Burscheid, Germany. Pens were equipped with a self-locking feeding fence, deep-straw bedding and an automatic cup drinker system. Animals were offered fresh corn- and grass-silage once daily ad libitum, drinking water from the onsite well and mineral licks ad libitum. Straw bedding was refreshed at least weekly. Tolerability and pharmacokinetics (PK) of emodepside were assessed after a single intravenous (IV) injection: emodepside (4.0% m/m in solketal) was administered by constant infusion via the external jugular vein using disposable sterile IV catheters (Vasofix Braunüle 14G, 2,2 × 50 mm, Braun, Germany), sterile syringes (Perfusor-Syringe 50 mL, Braun, Germany), tubing systems (Braun Original-Perfusor-tubing, 150 cm, Luer Lock), and a perfusion system (Braun Perfusor Space). Animal 1 received emodepside 2.17 mg/kg; animal 2 received emodepside 1 mg/kg. Safety and tolerability were assessed during and after each administration. […] To determine the PK profile of emodepside and any possible influence of the drug on blood glucose concentrations, blood samples were drawn before dosing and at 4 min, 8 min, 15 min, 30 min, 1 h, 2 h, 3 h, 4 h, 6 h, 8 h, 24 h, 32 h, 48 h, 72 h, 96 h and 168 h after administration. Samples for glucose determination were taken before dosing and at 15 min, 30 min, 1 h, 2 h, 3 h, 4 h, 6 h and 8 h after dosing, centrifuged at 10°C (3,220 × g) for 10 min and stored under cool conditions (<8°C).
# [2] = Plasma PK of emodepside in the main trial, LC-MS/MS; type: in vivo, zebu (Ngaoundéré Gudali) cattle (B. t. indicus); conditions: for Model tmax in plasma: two-compartment model; for Tmax: bovine, iv, read-out: Time of observed Cmax in plasma (converted)
# Method: Bovine samples (EDTA-plasma, skin snips and nodules) were stored at –80°C in Cameroon and shipped according to international transportation guidelines on dry ice to Bayer, Germany. Due to suspected contamination with other pathogens, samples required decontamination. Based on modified WHO guidelines for viral inactivation and reports of virus stability in fluids and solid media issued by the United States Army, decontamination of samples was performed. Samples were thawed slowly in a microbiological safety cabinet and the plasma samples were vortexed gently. Skin snips and nodules were homogenized in a Qiagen TissueLyser II (Qiagen NV, Hilden, the Netherlands) with stainless steel beads. Homogenates were weighed and mixed with 4.5 volumes of a 0.5% collagenase solution (collagenase from Clostridium histolyticum [>125 IU/mg] Merck KGaA, Darmstadt, Germany), then incubated at 37°C with orbital mixing at 140 rpm for 48 h.
# Plasma samples, skin and nodule homogenates were precipitated in a 1:10 ratio with acetonitrile using a vortex mixer at 150 rpm for 10 min, then centrifuged for 5 min at 14,000 rpm. The supernatants were pipetted into gas-tight vials and incubated at 80°C for 21 min to achieve a core temperature of 80°C for 10 min, then cooled to 4°C in a water-ice bath. Finally, samples were filtered using a cellulose sterile filter (S&S Spartan 13/30) into standard HPLC vials for liquid chromatography–mass spectrometry analysis. For liquid chromatography on a C18 column, a water/methanol gradient (containing 10 mmol ammonium acetate and 0.1 mL/L formic acid) was used. Quantification of emodepside was performed by tandem mass spectrometry on an API 5500 instrument (AB Sciex, Darmstadt, Germany) using the transition of m/z = 1,120 ([M + H]^+) to its product ion m/z = 343. […]
# For the PK mean model, the PK of emodepside was modelled using a closed-form, two-compartment IV model according to Eq 1. csdt=dose*c0*exp−ke*t*1+delta*exp+ke*f*t (1) with ke, f and delta being parameters describing the distribution and elimination phase, and c0 being a proportionality factor for the dose.
# The multiple IV dose was modelled as an additive single-dose, two-compartment model according to Eq 2. cmdt=∑i=17t−i*tΔ>0?csdt−i*tΔ:0 (2) with i as index of doses (1 to 7), and tΔ the difference in time between consecutive doses (here 24 h).
# Parameters describing distribution and elimination of emodepside were fitted to the observed data of all dose steps and animals together using the optim fit function of R and the ‘L-BFGS-B’ method […] box constraints. From the observed data, the maximal observed concentration and the corresponding timepoint were extracted. The terminal half-life was calculated from the last three datapoints. The corresponding mean values were derived from the compartmental model parameters.
# [3] = 1 mg/kg IV perfusion, one animal
# [4] = EMO1L, 0.15 mg/kg IV single dose, individual animals in order B0696, B0698, B0700, B0722, B0730, B0731, B0762
smiles,measurement,setting,value
CC(C)C[C@H]1C(=O)O[C@H](Cc2ccc(N3CCOCC3)cc2)C(=O)N(C)[C@@H](CC(C)C)C(=O)O[C@H](C)C(=O)N(C)[C@@H](CC(C)C)C(=O)O[C@H](Cc2ccc(N3CCOCC3)cc2)C(=O)N(C)[C@@H](CC(C)C)C(=O)O[C@H](C)C(=O)N1C [emodepside],Heart rate by the end of the perfusion,[1]; [3],approximately 108 bpm
same,"Heart rate, peak during the application",[1]; [3],140 bpm
same,"Blood glucose, peak","[1]; 1 mg/kg IV, 3–8 h post-application, xylazine at 6–8 h may have contributed",~ 12 mmol/L
same,Blood glucose,"[1]; 1 mg/kg IV, after 24 h (normal)",4.33 mmol/L
same,Adverse effects,"[1]; 1 mg/kg IV, for approximately 1 h after application, then full recovery",Salivation and slight muscle tremors
same,Adverse effects,"[1]; 2.17 mg/kg IV perfusion, one animal, treatment discontinued","severe generalised muscle tremor, salivation and tachycardia"
same,Time of observed Cmax in plasma,"[2]; EMO1H, 0.75 mg/kg IV single dose, animals in order B0054, B0405, B0439, B0726, B0728",5 min
same,tlast in plasma,"[2]; EMO1H, 0.75 mg/kg IV single dose, individual animals in order B0054, B0405, B0439, B0721, B0726, B0727, B0728",168 h (2×) and 504 h (4×) and 336 h
same,Model tmax in plasma,"[2]; EMO1H, 0.75 mg/kg IV single dose",0.0035 days
same,Time of observed Cmax in plasma,[2]; [4],5 min (6×) and 30 min
same,tlast in plasma,[2]; [4],168 h (3×) and 336 h (2×) and 504 h
same,Model tmax in plasma,"[2]; EMO1L, 0.15 mg/kg IV single dose",0.0035 days
same,tlast in plasma,"[2]; EMO7H, 0.75 mg/kg IV daily for 7 days, individual animals in order B0404, B0434, B0694, B0695, B0734, B0750, B0765",504 h
same,Model tmax in plasma,"[2]; EMO7H, 0.75 mg/kg IV daily for 7 days",6 days
same,tlast in plasma,"[2]; EMO7L, 0.15 mg/kg IV daily for 7 days, individual animals in order B0228, B0407, B0549, B0725, B0733, B0735, B0761",336 h and 504 h (6×)
same,Model tmax in plasma,"[2]; EMO7L, 0.15 mg/kg IV daily for 7 days",6 days
same,Tmax,"[2]; Ngaoundéré Gudali zebu, plasma, 0.15 mg/kg, EMO7L, 0.15 mg/kg IV daily for 7 days, animals in order B0228, B0407, B0735, B0761",1440 min
same,Tmax,"[2]; Ngaoundéré Gudali zebu, plasma, 0.15 mg/kg, EMO7L, 0.15 mg/kg IV daily for 7 days, animals in order B0549, B0725, B0733",5 min
same,Tmax,"[2]; Ngaoundéré Gudali, plasma, 0.75 mg/kg, EMO7H, 0.75 mg/kg IV daily for 7 days, animals in order B0434, B0695, B0734",5 min
same,Terminal half-life,"[2]; plasma, derived from observed data and aggregated through the PK model, all dose groups",approximately 106 h
